Assay results from ChEMBL document CHEMBL3046568, “Synthesis, antimicrobial and DNA cleavage studies of some 4-aryloxymethylcoumarins obtained by reaction of 4-bromomethylcoumarins with bidentate nucleophiles” (2012).
Converted amounts (≈) assume the structure as drawn. The source made the active and inactive calls. The calls are words filed in the database; no cut-off is given here.

Assays:
[1] = tested on: Enterococcus faecalis; test: Antibacterial activity against Enterococcus faecalis MTCC 3382 after 24 hr by disk diffusion method; format: functional; details: for MIC: Enterococcus faecalis, MTCC 3382, 24 h
[2] = tested on: Aspergillus fumigatus; test: Antifungal activity against Aspergillus fumigatus after 3 to 4 days by serial dilution method; format: functional; details: for MIC: Aspergillus fumigatus
[3] = tested on: Candida albicans; test: Antifungal activity against Candida albicans after 3 to 4 days by serial dilution method; format: functional; details: for MIC: Candida albicans
[4] = tested on: Fusarium oxysporum; test: Antifungal activity against Fusarium oxysporum after 3 to 4 days by serial dilution method; format: functional; details: for MIC: Fusarium oxysporum
[5] = tested on: Staphylococcus aureus; test: Induction of Staphylococcus aureus MTCC 3160 DNA cleavage at 50 ug after 2 hr by agarose gel electrophoresis
[6] = tested on: Penicillium chrysogenum; test: Antifungal activity against Penicillium chrysogenum after 3 to 4 days by serial dilution method; format: functional; details: for MIC: Penicillium chrysogenum
[7] = tested on: Mucor fuscus; test: Antifungal activity against Mucor fuscus after 3 to 4 days by serial dilution method; format: functional; details: for MIC: Mucor fuscus
[8] = tested on: Escherichia coli; test: Antibacterial activity against Escherichia coli MTCC 1089 after 24 hr by disk diffusion method; format: functional; details: for MIC: Escherichia coli, MTCC 1089, 24 h
[9] = tested on: Aspergillus niger; test: Antifungal activity against Aspergillus niger after 3 to 4 days by serial dilution method; format: functional; details: for MIC: Aspergillus niger
[10] = tested on: Pseudomonas aeruginosa; test: Antibacterial activity against Pseudomonas aeruginosa MTCC 1034 after 24 hr by disk diffusion method; format: functional; details: for MIC: Pseudomonas aeruginosa, MTCC 1034, 24 h
[11] = tested on: Escherichia coli; test: Induction of Escherichia coli MTCC 1089 DNA cleavage at 50 ug after 2 hr by agarose gel electrophoresis
[12] = tested on: Aspergillus niger; test: Induction of Aspergillus niger DNA cleavage at 50 ug after 2 hr by agarose gel electrophoresis
[13] = tested on: Klebsiella pneumoniae; test: Antibacterial activity against Klebsiella pneumoniae MTCC 3384 after 24 hr by disk diffusion method; format: functional; details: for MIC: Klebsiella pneumoniae, MTCC 3384, 24 h
[14] = tested on: Staphylococcus aureus; test: Antibacterial activity against Staphylococcus aureus MTCC 3160 after 24 hr by disk diffusion method; format: functional; details: for MIC: Staphylococcus aureus, MTCC 3160, 24 h
[15] = tested on: Bacillus subtilis; test: Antibacterial activity against Bacillus subtilis MTCC 297 after 24 hr by disk diffusion method; format: functional; details: for MIC: Bacillus subtilis, MTCC 297, 24 h

| SMILES | inhibition zone (IZ) [1] [mm] | MIC [1] [µg/mL] | inhibition zone (IZ) [2] [mm] | MIC [2] [µg/mL] | inhibition zone (IZ) [3] [mm] | MIC [3] [µg/mL] | MIC [4] [µg/mL] | Activity [5] | inhibition zone (IZ) [6] [mm] | MIC [6] [µg/mL] | inhibition zone (IZ) [7] [mm] | MIC [7] [µg/mL] | MIC [8] [µg/mL] | inhibition zone (IZ) [9] [mm] | MIC [9] [µg/mL] | inhibition zone (IZ) [10] [mm] | MIC [10] [µg/mL] | Activity [11] | Activity [12] | inhibition zone (IZ) [13] [mm] | also measured |
| --- | --- | --- | --- | --- | --- | --- | --- | --- | --- | --- | --- | --- | --- | --- | --- | --- | --- | --- | --- | --- | --- |
| O=c1cc(COc2cccc(O)c2)c2cc(Br)ccc2o1 | 18 | 6.25 (≈ 18 µM) | 18 | 12.5 (≈ 36 µM) | 17 | 6.25 (≈ 18 µM) | 25 (≈ 72 µM) | Active | 19 | 6.25 (≈ 18 µM) | 18 | 12.5 (≈ 36 µM) | 12.5 (≈ 36 µM) | 21 | 6.25 (≈ 18 µM) | 23 | 6.25 (≈ 18 µM) | Active | Active | 19 | inhibition zone (IZ) [4]: 13 mm; inhibition zone (IZ) [8]: 15 mm; MIC [13]: 6.25 µg/mL (≈ 18 µM); inhibition zone (IZ) [14]: 19 mm; MIC [14]: 6.25 µg/mL (≈ 18 µM); inhibition zone (IZ) [15]: 17 mm; MIC [15]: 6.25 µg/mL (≈ 18 µM) |
| CCN(CC)c1cccc(OCc2cc(=O)oc3ccc(C)cc23)c1 | 17 | 6.25 (≈ 18.5 µM) | 16 | 12.5 (≈ 37 µM) | 10 | 25 (≈ 74.1 µM) | 50 (≈ 148 µM) | inactive | 17 | 12.5 (≈ 37 µM) | 16 | 12.5 (≈ 37 µM) | 50 (≈ 148 µM) | 18 | 12.5 (≈ 37 µM) | 15 | 25 (≈ 74.1 µM) | inactive | inactive | 13 | inhibition zone (IZ) [4]: 9 mm; inhibition zone (IZ) [8]: 10 mm; inhibition zone (IZ) [14]: 15 mm; MIC [14]: 12.5 µg/mL (≈ 37 µM); inhibition zone (IZ) [15]: 14 mm; MIC [15]: 12.5 µg/mL (≈ 37 µM) |
| CC(=O)Nc1cccc(OCc2cc(=O)oc3cc(C)ccc23)c1 | 14 | 12.5 (≈ 38.7 µM) | 16 | 12.5 (≈ 38.7 µM) | 9 | 25 (≈ 77.3 µM) | 50 (≈ 155 µM) | inactive | 18 | 12.5 (≈ 38.7 µM) | 16 | 12.5 (≈ 38.7 µM) | 25 (≈ 77.3 µM) | 19 | 6.25 (≈ 19.3 µM) | 16 | 12.5 (≈ 38.7 µM) | inactive | inactive | 14 | inhibition zone (IZ) [4]: 9 mm; inhibition zone (IZ) [8]: 10 mm; MIC [13]: 12.5 µg/mL (≈ 38.7 µM); inhibition zone (IZ) [14]: 14 mm; MIC [14]: 12.5 µg/mL (≈ 38.7 µM); inhibition zone (IZ) [15]: 15 mm; MIC [15]: 12.5 µg/mL (≈ 38.7 µM) |
| Cc1ccc2oc(=O)cc(COc3cccc(OCc4cc(=O)oc5ccc(C)cc45)c3)c2c1 | 16 | 12.5 (≈ 27.5 µM) | 17 | 12.5 (≈ 27.5 µM) | 9 | 25 (≈ 55 µM) | > 100 | inactive | 16 | 25 (≈ 55 µM) | 16 | 12.5 (≈ 27.5 µM) | > 100 | 17 | 12.5 (≈ 27.5 µM) | 13 | 25 (≈ 55 µM) | inactive | inactive | 12 | MIC [13]: 12.5 µg/mL (≈ 27.5 µM); inhibition zone (IZ) [14]: 14 mm; MIC [14]: 12.5 µg/mL (≈ 27.5 µM); inhibition zone (IZ) [15]: 14 mm; MIC [15]: 12.5 µg/mL (≈ 27.5 µM) |
| CCN(CC)c1cccc(OCc2cc(=O)oc3cc(C)ccc23)c1 | 15 | 6.25 (≈ 18.5 µM) | 15 | 12.5 (≈ 37 µM) | 8 | 25 (≈ 74.1 µM) | 50 (≈ 148 µM) | inactive | 18 | 12.5 (≈ 37 µM) | 16 | 12.5 (≈ 37 µM) | 50 (≈ 148 µM) | 18 | 12.5 (≈ 37 µM) | 16 | 12.5 (≈ 37 µM) | inactive | inactive | 14 | inhibition zone (IZ) [4]: 7 mm; inhibition zone (IZ) [8]: 9 mm; MIC [13]: 12.5 µg/mL (≈ 37 µM); inhibition zone (IZ) [14]: 16 mm; MIC [14]: 12.5 µg/mL (≈ 37 µM); inhibition zone (IZ) [15]: 13 mm; MIC [15]: 12.5 µg/mL (≈ 37 µM) |
| O=c1cc(COc2cccc(O)c2)c2c(ccc3ccccc32)o1 | 14 | 12.5 (≈ 39.3 µM) | 15 | 12.5 (≈ 39.3 µM) | 14 | 12.5 (≈ 39.3 µM) | 25 (≈ 78.5 µM) | inactive | 16 | 25 (≈ 78.5 µM) | 13 | 25 (≈ 78.5 µM) | 25 (≈ 78.5 µM) | 17 | 12.5 (≈ 39.3 µM) | 18 | 12.5 (≈ 39.3 µM) | inactive | inactive | 15 | inhibition zone (IZ) [4]: 12 mm; inhibition zone (IZ) [8]: 12 mm; MIC [13]: 12.5 µg/mL (≈ 39.3 µM); inhibition zone (IZ) [14]: 11 mm; MIC [14]: 25 µg/mL (≈ 78.5 µM); inhibition zone (IZ) [15]: 12 mm; MIC [15]: 25 µg/mL (≈ 78.5 µM) |
| O=c1cc(COc2cccc(OCc3cc(=O)oc4ccc5ccccc5c34)c2)c2c(ccc3ccccc32)o1 | 11 | 25 (≈ 47.5 µM) | 15 | 12.5 (≈ 23.7 µM) | 13 | 12.5 (≈ 23.7 µM) | 25 (≈ 47.5 µM) | inactive | 15 | 25 (≈ 47.5 µM) | 15 | 25 (≈ 47.5 µM) | 25 (≈ 47.5 µM) | 16 | 12.5 (≈ 23.7 µM) | 17 | 12.5 (≈ 23.7 µM) | inactive | inactive | 14 | inhibition zone (IZ) [4]: 13 mm; inhibition zone (IZ) [8]: 11 mm; MIC [13]: 12.5 µg/mL (≈ 23.7 µM); inhibition zone (IZ) [14]: 12 mm; MIC [14]: 25 µg/mL (≈ 47.5 µM); inhibition zone (IZ) [15]: 12 mm; MIC [15]: 25 µg/mL (≈ 47.5 µM) |
| O=c1cc(COc2cccc(OCc3cc(=O)oc4c3ccc3ccccc34)c2)c2ccc3ccccc3c2o1 | 12 | 25 (≈ 47.5 µM) | 15 | 12.5 (≈ 23.7 µM) | 13 | 12.5 (≈ 23.7 µM) | 25 (≈ 47.5 µM) | inactive | 14 | 25 (≈ 47.5 µM) | 14 | 25 (≈ 47.5 µM) | 25 (≈ 47.5 µM) | 15 | 12.5 (≈ 23.7 µM) | 17 | 12.5 (≈ 23.7 µM) | inactive | inactive | 16 | inhibition zone (IZ) [4]: 14 mm; inhibition zone (IZ) [8]: 12 mm; MIC [13]: 6.25 µg/mL (≈ 11.9 µM); inhibition zone (IZ) [14]: 11 mm; MIC [14]: 25 µg/mL (≈ 47.5 µM); inhibition zone (IZ) [15]: 11 mm; MIC [15]: 25 µg/mL (≈ 47.5 µM) |
| CC(=O)Nc1cccc(OCc2cc(=O)oc3ccc(Br)cc23)c1 | 18 | 6.25 (≈ 16.1 µM) | 20 | 6.25 (≈ 16.1 µM) | 16 | 12.5 (≈ 32.2 µM) | 25 (≈ 64.4 µM) | Active | 20 | 6.25 (≈ 16.1 µM) | 19 | 6.25 (≈ 16.1 µM) | 12.5 (≈ 32.2 µM) | 20 | 6.25 (≈ 16.1 µM) | 22 | 6.25 (≈ 16.1 µM) | Active | Active | 18 | inhibition zone (IZ) [4]: 13 mm; inhibition zone (IZ) [8]: 14 mm; MIC [13]: 6.25 µg/mL (≈ 16.1 µM); inhibition zone (IZ) [14]: 17 mm; MIC [14]: 6.25 µg/mL (≈ 16.1 µM); inhibition zone (IZ) [15]: 17 mm; MIC [15]: 6.25 µg/mL (≈ 16.1 µM) |
| O=c1cc(COc2cccc(OCc3cc(=O)oc4ccc(Br)cc34)c2)c2cc(Br)ccc2o1 | 19 | 6.25 (≈ 10.7 µM) | 18 | 12.5 (≈ 21.4 µM) | 17 | 6.25 (≈ 10.7 µM) | 25 (≈ 42.8 µM) | Active | 18 | 12.5 (≈ 21.4 µM) | 18 | 12.5 (≈ 21.4 µM) | 12.5 (≈ 21.4 µM) | 19 | 6.25 (≈ 10.7 µM) | 21 | 6.25 (≈ 10.7 µM) | Active | Active | 17 | inhibition zone (IZ) [4]: 13 mm; inhibition zone (IZ) [8]: 14 mm; MIC [13]: 6.25 µg/mL (≈ 10.7 µM); inhibition zone (IZ) [14]: 17 mm; MIC [14]: 6.25 µg/mL (≈ 10.7 µM); inhibition zone (IZ) [15]: 16 mm; MIC [15]: 6.25 µg/mL (≈ 10.7 µM) |
